Assay results from patent US10730863B2, “Bridged bicyclic compounds as farnesoid X receptor modulators” (BRISTOL-MYERS SQUIBB COMPANY, priority 2017, dated 2020).
pEC50: −log10 of the molar value.

Target: FXR (Homo sapiens (Human), UniProt Q96RI1)
Test: transient human FXR/Gal4-luciferase reporter assay
Format: cell-based
Details: Gal4-hFXR LBD fusion in HEK293 reporter cells; relative to 8 μM GW-4064
Procedure: The exemplified compounds of the present invention were tested in the transient human FXR/Gal4-luciferase reporter assay, and assay results were described in the EXAMPLES section hereinbefore.
A Gal4-hFXR fusion construct reporter system was used as the primary assay to characterize compound activity. A construct including 5 copies of the Gal4 promoter response element upstream of a firefly luciferase reporter cDNA was stably expressed in HEK293 cells. This reporter cell line was maintained in Dulbecco's Modified Eagle's medium (DMEM; Gibco) supplemented with 1% penicillin-streptomycin (P/S) solution, 500 μg/ml Zeocin and 10% charcoal/dextran-treated fetal bovine serum (cs-FBS) at 37° C. in a humidified 5% CO2 atmosphere. Another plasmid was constructed in which the human cytomegalovirus promoter in the pcDNA3.1 vector directs the expression of the cDNA encoding a fusion protein comprised of the DNA binding domain from the Gal4 transcription factor fused to the ligand binding domain from human FXR.
The day prior to transfection, the reporter cells in culture are detached from the plate with trypsin and plated into a T75 flask at a sufficient density to achieve approximately 90% confluence the next morning. The transfection reagents are prepared by separately diluting 25 μg of the pcDNA3.1-Gal4-FXR plasmid into 1.87 mL of Opti-MEM (Thermo-Fisher), and 40 μL of Lipofectamine 2000 (Thermo-Fisher) into 1.87 mL of Opti-MEM, and then adding the diluted DNA solution into the diluted Lipofectamine 2000 solution and incubating at room temperature for 15-20 minutes. The mixture is further diluted with 10 mL of a solution comprised of DMEM, 10% cs-FBS, and 1% P/S immediately prior to transferring to the cells. The maintenance culture media is aspirated from the cells and the final transfection mixture is added before the cells are incubated overnight at 37° C. in a humidified 5% CO2 atmosphere. This protocol can be scaled up, and the transiently transfected cells can be cryopreserved in an assay-ready format.
For compound testing, 100 nL of the compounds (serial dilutions in DMSO) are dispensed with an Echo acoustic dispenser (Labcyte) into the wells of a Corning/Costar clear bottom 384-well white plate. The transfected cells are harvested, counted, and diluted such that 10-25,000 cells in 25 μL are plated into each well of the 384-well compound assay plate. The compound-treated cells are incubated overnight at 37° C. in a humidified 5% CO2 atmosphere. The next morning 25 μL of Steady-Glo (Promega) are added to each well of the plate, the mixture is incubated for 15 min. with shaking, and luminescence is measured on an Envision (Perkin Elmer) plate reader. Background counts from cells treated with DMSO alone are subtracted from all raw counts, and the corrected values are converted to a percentage of the control response attained with 8 μM GW-4064.

Sequence of FXR (Q96RI1 262-486): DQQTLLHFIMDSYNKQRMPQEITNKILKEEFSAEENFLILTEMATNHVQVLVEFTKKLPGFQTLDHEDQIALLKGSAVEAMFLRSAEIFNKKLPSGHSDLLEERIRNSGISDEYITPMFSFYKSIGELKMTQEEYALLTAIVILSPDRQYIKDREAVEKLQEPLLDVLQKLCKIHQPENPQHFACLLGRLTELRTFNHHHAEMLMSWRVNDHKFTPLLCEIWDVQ

O=C(O)Cc1ccc(C#CC23CCC(OCc4c(-c5c(Cl)cncc5Cl)noc4C4CC4)(CC2)CC3)cc1F [Example 567]
pEC50: 6.92

CN1CCN(c2ncc(C(=O)O)cc2C#CC23CCC(OCc4c(-c5c(Cl)cncc5Cl)noc4C4CC4)(CC2)CC3)CC1 [Example 568]
pEC50: 6.28

O=C(O)COCc1ccc(C#CC23CCC(OCc4c(-c5c(Cl)cncc5Cl)noc4C4CC4)(CC2)CC3)nc1 [Example 569]
pEC50: 5.86

CN1CCN(c2nc(C(=O)O)cc3cc(C#CC45CCC(OCc6c(-c7c(Cl)cncc7Cl)noc6C6CC6)(CC4)CC5)ccc23)CC1 [Example 570]
pEC50: 6.70

O=C(O)COCc1ccc(C#CC23CCC(OCc4c(-c5c(Cl)cncc5Cl)noc4C4CC4)(CC2)CC3)cn1 [Example 571]
pEC50: 6.57

CN(C)C1CN(c2nc(C(=O)O)cc3ccc(C#CC45CCC(OCc6c(-c7c(Cl)cncc7Cl)noc6C6CC6)(CC4)CC5)cc23)C1 [Example 572]
pEC50: 7.21

O=C(O)c1cc2ccc(C#CC34CCC(OCc5c(-c6c(Cl)cncc6Cl)noc5C5CC5)(CC3)CC4)cc2c(N2CCNCC2)n1 [Example 573]
pEC50: 5.79

O=C(O)c1cc2ccc(C#CC34CCC(OCc5c(-c6c(Cl)cncc6Cl)noc5C5CC5)(CC3)CC4)cc2c(OCCN2CCCC2)n1 [Example 574]
pEC50: 5.86

CCOc1nc(C(=O)O)cc2ccc(OCC34CCC(OCc5c(-c6c(Cl)cncc6Cl)noc5C5CC5)(CC3)CC4)cc12 [Example 575]
pEC50: 7.74

Cc1nc(NCC23CCC(OCc4c(-c5c(Cl)cccc5Cl)noc4C4CC4)(CC2)CC3)sc1CC(=O)O [Example 577]
pEC50: 6.07

O=C(O)c1cn2c(n1)CN(CC13CCC(OCc4c(-c5c(Cl)cccc5Cl)noc4C4CC4)(CC1)CC3)CC2 [Example 578]
pEC50: 6.04

O=C(O)c1ccc(NCC23CCC(OCc4c(-c5c(Cl)cccc5Cl)noc4C4CC4)(CC2)CC3)nc1 [Example 579]
pEC50: 7.15

O=C(O)c1cncc(NCC23CCC(OCc4c(-c5c(Cl)cccc5Cl)noc4C4CC4)(CC2)CC3)c1 [Example 580]
pEC50: 6.27

Cn1nc(NCC23CCC(OCc4c(-c5c(Cl)cccc5Cl)noc4C4CC4)(CC2)CC3)cc1C(=O)O [Example 581]
pEC50: 6.58

COc1ncc(-c2noc(C34CCC(OCc5c(-c6c(Cl)cncc6Cl)noc5C5CC5)(CC3)CC4)n2)cc1C(=O)O [Example 585]
pEC50: 6.94

CC(C)Oc1cc(C(=O)O)nc2ccc(CCC34CCC(OCc5c(-c6c(Cl)cncc6Cl)noc5C5CC5)(CC3)CC4)cc12 [Example 586]
pEC50: 7.52

O=C(O)Cc1ccc(/C=C/C23CCC(OCc4c(-c5c(Cl)cncc5Cl)noc4C4CC4)(CC2)CC3)cc1 [Example 587]
pEC50: 6.76

O=C(O)c1ccc2cc(/C=C/C34CCC(OCc5c(-c6c(Cl)cncc6Cl)noc5C5CC5)(CC3)CC4)ccc2n1 [Example 588]
pEC50: 7.06

O=C(O)c1cc(OC2CCCC2)c2cc(/C=C/C34CCC(OCc5c(-c6c(Cl)cncc6Cl)noc5C5CC5)(CC3)CC4)ccc2n1 [Example 589]
pEC50: 7.77

COc1nc(C(=O)O)nc2ccc(/C=C/C34CCC(OCc5c(-c6c(Cl)cncc6Cl)noc5C5CC5)(CC3)CC4)cc12 [Example 590]
pEC50: 6.03

CC(C)Oc1cc(C(=O)O)nc2ccc(/C=C/C34CCC(OCc5c(-c6c(Cl)cncc6Cl)noc5C5CC5)(CC3)CC4)cc12 [Example 591]
pEC50: 7.80

O=C(O)c1cnc2cc(/C=C/C34CCC(OCc5c(-c6c(Cl)cncc6Cl)noc5C5CC5)(CC3)CC4)ccn12 [Example 592]
pEC50: 6.71

O=C(O)c1cnc2ccc(/C=C/C34CCC(OCc5c(-c6c(Cl)cncc6Cl)noc5C5CC5)(CC3)CC4)cn12 [Example 593]
pEC50: 5.95

O=C(O)Cc1ccc(/C=C/C23CCC(OCc4c(-c5c(Cl)cncc5Cl)noc4C4CC4)(CC2)CC3)cc1F [Example 594]
pEC50: 6.82

Cn1c(C(=O)O)cc2ccc(/C=C/C34CCC(OCc5c(-c6c(Cl)cncc6Cl)noc5C5CC5)(CC3)CC4)cc21 [Example 595]
pEC50: 7.31

O=C(O)Cc1ccc(/C=C/C23CCC(OCc4c(-c5c(Cl)cncc5Cl)noc4C4CC4)(CC2)CC3)cn1 [Example 596]
pEC50: 5.87
